The values that follow come from patent US5508311A, “Aliphatic propargylamines as selective MAO-B inhibitors and as neuroprotective agents” (University of Saskatchewan, priority 1993, dated 1996).

In one assay the test system is noradrenaline neurons. Put plainly: Protection of noradrenaline neurons against DSP-4 induced neurotoxicity in the mouse brain. In kind it is in vivo. Conditions: Experiment I, pretreatment 10 mg/Kg i.p., mean ± S.E. As for the experimental part: The analyses of DSP-4-induced neurotoxic effects were conducted in accordance with […] and Jonsson (Eur. J. Pharmacol. 103 (1984), 269-278), hereby incorporated by reference. Mice were pretreated with M-2-PP (10 mg/Kg) and 2-HxMP (10 mg/Kg) or saline as control via i.p. administration and one hour later challenged with a single i.p. dose of DSP-4 (DSP-4: […] One week after treatment noradrenaline content in the putamen of these mice was analyzed. The results which are shown in Table 5 are mean ± S.E. of five animals in each group.

The target of assay [1] is T1, MAO-A (Mus musculus, UniProt Q64133).
T1 construct: MAO activities in the mouse brain after; from tissue
T1 sequence (Q64133 1-526): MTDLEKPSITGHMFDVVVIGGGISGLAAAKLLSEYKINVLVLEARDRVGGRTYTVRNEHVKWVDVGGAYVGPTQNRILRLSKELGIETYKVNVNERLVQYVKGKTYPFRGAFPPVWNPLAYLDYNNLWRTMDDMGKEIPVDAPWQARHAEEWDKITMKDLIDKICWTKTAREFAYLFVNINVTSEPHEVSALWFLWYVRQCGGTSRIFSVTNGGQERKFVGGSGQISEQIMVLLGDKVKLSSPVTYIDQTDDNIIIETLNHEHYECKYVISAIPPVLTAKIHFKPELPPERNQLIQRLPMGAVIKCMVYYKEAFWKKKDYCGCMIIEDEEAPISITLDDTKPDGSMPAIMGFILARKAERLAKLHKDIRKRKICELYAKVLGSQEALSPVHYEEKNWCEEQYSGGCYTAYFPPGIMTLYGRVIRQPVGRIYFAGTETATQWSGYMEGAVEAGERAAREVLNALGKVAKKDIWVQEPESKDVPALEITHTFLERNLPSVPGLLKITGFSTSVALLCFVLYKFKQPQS
Kind of assay: in vivo. Conditions: ip, 2 h, read-out: 5-HT ID50. As for the experimental part:
(§1) Albino Swiss mice were used in this study. The animals were injected intraperitoneally with different doses of the aliphatic propargylamines in 100 μL saline.
(§2) 0.5, 1, 2, 5, 10, 20, 50, 100 mg/Kg. Striata were dissected from the brai
(§3) two hours after i.p. administration of the drugs. MAOA and MAOB activitie
(§4) were determined immediately. The values were estimated from doseresponse

The next assay addresses monoamine oxidase. Put plainly: Inhibition of rat liver monoamine oxidase deamination of dopamine (DA, mixed-type MAO A and B substrate) in vitro. In kind it is biochemical. Conditions: substrate DA (5 × 10^-4 M), average of at least 3 independent experiments.
In assay [2] the target is T1, MAO-A. In kind it is in vivo. Conditions: mouse, in vivo, po, 10 mg/kg. As for the experimental part:
(§5) Table 3 indicates the MAO activities in the mouse brain following oral administration of the aliphatic propargylamines.
(§6) of each compound. Striata were dissected from the brain two hours after
(§7) the administration of the drugs. MAOA and MAOB activities were determined

The target in assay [3] is T2, MAO-B (Mus musculus, UniProt Q8BW75).
T2 construct: MAO activities in the mouse brain after; from tissue
T2 sequence (Q8BW75 1-520): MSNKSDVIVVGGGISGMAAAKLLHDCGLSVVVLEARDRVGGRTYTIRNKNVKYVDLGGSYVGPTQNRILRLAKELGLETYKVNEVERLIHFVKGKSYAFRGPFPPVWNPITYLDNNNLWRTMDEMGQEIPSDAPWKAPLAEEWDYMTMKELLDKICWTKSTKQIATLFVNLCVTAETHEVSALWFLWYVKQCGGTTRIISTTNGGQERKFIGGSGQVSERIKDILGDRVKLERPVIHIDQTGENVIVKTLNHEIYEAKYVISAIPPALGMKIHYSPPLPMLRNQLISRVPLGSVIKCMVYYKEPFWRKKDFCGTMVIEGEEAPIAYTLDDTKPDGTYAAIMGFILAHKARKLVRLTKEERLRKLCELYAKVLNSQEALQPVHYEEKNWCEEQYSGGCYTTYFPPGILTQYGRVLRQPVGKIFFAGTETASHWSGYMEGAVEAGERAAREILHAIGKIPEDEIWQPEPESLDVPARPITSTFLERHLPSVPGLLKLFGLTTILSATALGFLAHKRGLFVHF
Kind of assay: in vivo. It is filed as in vivo. To be noted: mouse, ip. As for the experimental part: as §1, §2, §3, §4

In assay [4] the target is T2, MAO-B. Kind of assay: MAO-B activity in the mouse brain after oral administration (substrate PE). It is filed as in vivo. To be noted: 2 hours. As for the experimental part: as §5, §6, §7
Striata were dissected from the brain two
hours after oral administration of the drugs. MAOB activities were then
determined immediately. The values were estimated from doseresponse

In assay [5] the target is T3, MAO-A (Rattus norvegicus, UniProt P21396).
T3 sequence (P21396 1-526): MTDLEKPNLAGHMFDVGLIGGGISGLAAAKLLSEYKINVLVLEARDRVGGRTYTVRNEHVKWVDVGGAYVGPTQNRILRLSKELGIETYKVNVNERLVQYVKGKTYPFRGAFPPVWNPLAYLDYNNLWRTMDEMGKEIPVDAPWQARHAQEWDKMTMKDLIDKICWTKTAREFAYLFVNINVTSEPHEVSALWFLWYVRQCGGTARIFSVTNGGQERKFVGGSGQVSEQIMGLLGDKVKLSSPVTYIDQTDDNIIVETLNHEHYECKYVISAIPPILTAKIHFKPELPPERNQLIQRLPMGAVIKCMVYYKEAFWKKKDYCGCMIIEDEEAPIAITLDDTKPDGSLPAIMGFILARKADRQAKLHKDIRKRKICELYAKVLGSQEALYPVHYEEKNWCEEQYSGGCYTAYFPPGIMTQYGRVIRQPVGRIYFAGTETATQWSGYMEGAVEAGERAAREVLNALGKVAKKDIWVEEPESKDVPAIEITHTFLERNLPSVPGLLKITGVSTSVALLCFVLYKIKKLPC
Put plainly: biochemical. It is filed as biochemical. Conditions: substrate 5-HT (5 × 10^-4 M); rat liver MAO, in vitro; average of at least 3 independent experiments.

As for `C#CCN(C)C(C)CCC.Cl.O=C(O)C(=O)O` (stereo not drawn) [Example M-2-PP, N-(2-Pentyl)-N-methylpropargylamine hydrochloride and oxalate], the Noradrenaline in putamen in the assay with noradrenaline neurons (DSP-4 50 mg/Kg, p < 0.01 vs DSP-4 (DSP-4 alone 33)) is reported as 90 ± 0.07%; in the assay on noradrenaline neurons (saline, no DSP-4), 111 ± 0.09%. The ED50 on MAO-A [1] is 25 mg/kg; at MAO-B [3] (2 h, read-out: PE ID50) it was 0.5 mg/kg; at MAO-B [4] (mouse, oral, average of 5 animals per dose, estimated from dose response curves, read-out: Inhibition of MAO-B activity, dose response (ID50)), 1 mg/kg. The figures for the 50% inhibitory concentration (IC50) at monoamine oxidase and at MAO-A [5] were 6 µM and 10 µM, respectively. The “Relative activity 5-HT” value on MAO-A [2] is recorded as 89 ± 15. For the same compound, on MAO-B [3] (in vivo), the “MAO-B ID50 (mg/Kg) / IC50 (1 × 10^-6 M)” value was found to be 2.5. Also, the “inhibition of brain MAO-B activity in vivo (in words)” value against MAO-B [3] (in vivo) is listed as “more potent than the longer chain analogs at inhibiting brain MAO-B activity”. For the same compound, at MAO-B [3] (in vivo, 120 min), the “Ratio MAO-A/MAO-B” value was found to be 50. In addition, the “Relative activity PE” value at MAO-B [4] (oral 10 mg/Kg, PE (1.9 × 10^-5 M), mean ± standard error, saline = 100) amounted to 31 ± 4%.
